# Patent US8158792B2, “Spiropiperidines for use as tryptase inhibitors” (Janssen Pharmaceutica N.V., priority 2007, dated 2012)
# pIC50: −log10 of the molar value.
# Target: human lung tryptase
# Test: β-Tryptase In-Vitro Enzyme Assay
# Assay type: biochemical
# Conditions: human lung tryptase 1 nM, substrate H-D-HHT-Ala-Arg-pNa 500 μM, pH 7.4, room temperature
# Description: The β-tryptase assay was conducted with human lung tryptase (Cortex Biochem #CP3033) in an aqueous buffer (10 mM Tris, 10 mM Hepes, 150 mM NaCl, 0.1% PEG 8000, pH 7.4) using the chromogenic substrate H-D-HHT-Ala-Arg-pNa. […] Percent inhibition was calculated by comparing the initial reaction velocity of samples without inhibitor to those with inhibitor. The initial reaction velocities were analyzed using Microsoft Excel.
row,SMILES,pIC50
1,"Cc1nn(-c2ccc(C(=O)N3CCC4(CC3)COc3ccc(CN)cc34)o2)c(C)c1Br [Cpd 150, 1-[5-(3,5-dimethyl-4-bromo-pyrazol-1-yl)-furan-2-yl]carbonyl-5′-aminomethyl-spiro[piperidine-4,3′-(2H)-benzo[b]furan]]",6.74
2,"NCc1ccc2c(c1)C1(CCN(C(=O)c3ccc(CSc4ccc(C(F)(F)F)cn4)o3)CC1)CO2 [Cpd 151, 1-[5-(5-trifluoromethyl-pyridin-2-ylthiomethyl)-furan-2-yl]carbonyl-5′-aminomethyl-spiro[piperidine-4,3′-(2H)-benzo[b]furan]]",6.74
3,"NCc1ccc2c(c1)C1(CCN(C(=O)c3cc(C#Cc4ccccc4)ccn3)CC1)CO2 [Cpd 152, 1-[4-phenylethynyl-pyridin-2-yl]carbonyl-5′-aminomethyl-spiro[piperidine-4,3′-(2H)-benzo[b]furan]]",8.64
4,"Cc1ccccc1C#Cc1ccc(C(=O)N2CCC3(CC2)COc2ccc(CN)cc23)o1 [Cpd 153, 1-[5-(2-methyl-phenylethynyl)-furan-2-yl]carbonyl-5′-aminomethyl-spiro[piperidine-4,3′-(2H)-benzo[b]furan]]",8.92
5,"NCc1ccc2c(c1)C1(CCN(C(=O)c3ccc(COc4ccc(F)cc4)o3)CC1)CO2 [Cpd 154, 1-[5-(4-fluoro-phenoxymethyl)-furan-2-yl]carbonyl-5′-aminomethyl-spiro[piperidine-4,3′-(2H)-benzo[b]furan]]",6.59
6,"CSc1sc(C(=O)N2CCC3(CC2)COc2ccc(CN)cc23)c2c1C(=O)CCC2 [Cpd 155, 1-(3-methylthio-4-oxo-5,6,7-trihydro-4H-benzo[c]thien-1-yl)carbonyl-5′-aminomethyl-spiro[piperidine-4,3′-(2H)-benzo[b]furan]]",7.92
7,"Cc1cc(C(=O)NCc2ccc(C(=O)N3CCC4(CC3)COc3ccc(CN)cc34)o2)c(C)o1 [Cpd 156, 1-[5-(2,5-dimethyl-furan-3-yl-carbonylaminomethyl)-furan-2-yl]carbonyl-5′-aminomethyl-spiro[piperidine-4,3′-(2H)-benzo[b]furan]]",6.89
8,"CSc1sc(C(=O)N2CCC3(CC2)COc2ccc(CN)cc23)c(Cl)c1S(=O)(=O)C(C)C [Cpd 157, 1-(3-chloro-4-isopropylsulfonyl-5-methylthio-thien-2-yl)carbonyl-5′-aminomethyl-spiro[piperidine-4,3′-(2H)-benzo[b]furan]]",7.77
9,"NCc1ccc2c(c1)C1(CCN(Cc3ccc(Cl)c(Cl)c3)CC1)CO2 [Cpd 158, 1-(3,4-dichloro-benzyl)-5′-aminomethyl-spiro[piperidine-4,3′-(2H)-benzo[b]furan]]",5.35
10,"NCc1ccc2c(c1)C1(CCN(C(=O)c3cccs3)CC1)CO2 [Cpd 159, 1-thien-2-ylcarbonyl-5′-aminomethyl-spiro[piperidine-4,3′-(2H)-benzo[b]furan]]",6.68
11,"NCc1ccc2c(c1)C1(CCN(C(=O)c3cc4ccccc4o3)CC1)CO2 [Cpd 160, 1-benzo[b]furan-2-ylcarbonyl-5′-aminomethyl-spiro[piperidine-4,3′-(2H)-benzo[b]furan]]",6.68
12,"NCc1ccc2c(c1)C1(CCN(C(=O)/C=C/c3cccc(F)c3)CC1)CO2 [Cpd 161, (E)-1-(3-fluoro-phenylethenyl)carbonyl-5′-aminomethyl-spiro[piperidine-4,3′-(2H)-benzo[b]furan]]",7.28
13,"NCc1ccc2c(c1)C1(CCN(C(=O)/C(F)=C/c3ccccc3)CC1)CO2 [Cpd 162, (Z)-1-(1-fluoro-2-phenylethenyl)carbonyl-5′-aminomethyl-spiro[piperidine-4,3′-(2H)-benzo[b]furan]]",7.10
14,"NCc1ccc2c(c1)C1(CCN(C(=O)c3cc4c(s3)CCCC4)CC1)CO2 [Cpd 163, 1-(5,6,7-trihydro-4H-benzo[b]thien-2-yl)carbonyl-5′-aminomethyl-spiro[piperidine-4,3′-(2H)-benzo[b]furan]]",7.27
15,"NCc1ccc2c(c1)C1(CCN(C(=O)/C=C/c3cccc(Cl)c3)CC1)CO2 [Cpd 164, (E)-1-(3-chloro-phenylethenyl)carbonyl-5′-aminomethyl-spiro[piperidine-4,3′-(2H)-benzo[b]furan]]",6.85
16,"NCc1ccc2c(c1)C1(CCN(C(=O)/C=C/c3ccc(Cl)cc3)CC1)CO2 [Cpd 165, (E)-1-(4-chloro-phenylethenyl)carbonyl-5′-aminomethyl-spiro[piperidine-4,3′-(2H)-benzo[b]furan]]",6.42
17,"NCc1ccc2c(c1)C1(CCN(C(=O)c3sc4ccccc4c3Cl)CC1)CO2 [Cpd 166, 1-(3-chloro-benzo[b]thien-2-yl)carbonyl-5′-aminomethyl-spiro[piperidine-4,3′-(2H)-benzo[b]furan]]",7.15
18,"NCc1ccc2c(c1)C1(CCN(C(=O)/C=C/c3cccc(OC(F)(F)F)c3)CC1)CO2 [Cpd 167, (E)-1-(3-trifluoromethoxy-phenylethenyl)carbonyl-5′-aminomethyl-spiro[piperidine-4,3′-(2H)-benzo[b]furan]]",6.22

row,SMILES,pIC50
1,"NCc1ccc2c(c1)C1(CCN(C(=O)c3cc4c(F)cccc4s3)CC1)CO2 [Cpd 168, 1-(4-fluoro-benzo[b]thien-2-yl)carbonyl-5′-aminomethyl-spiro[piperidine-4,3′-(2H)-benzo[b]furan]]",7.32
2,"CS(=O)(=O)c1ccc(C(=O)N2CCC3(CC2)COc2ccc(CN)cc23)s1 [Cpd 169, 1-(5-methylsulfonyl-thien-2-yl)carbonyl-5′-aminomethyl-spiro[piperidine-4,3′-(2H)-benzo[b]furan]]",5.80
3,"Cc1ccc(C#Cc2ccc(C(=O)N3CCC4(CC3)COc3ccc(CN)cc34)o2)cc1 [Cpd 170, 1-[5-(4-methyl-phenylethynyl)-furan-2-yl]carbonyl-5′-aminomethyl-spiro[piperidine-4,3′-(2H)-benzo[b]furan]]",8.08
4,"NCc1ccc2c(c1)C1(CCN(C(=O)c3sc4cc(F)ccc4c3Cl)CC1)CO2 [Cpd 171, 1-(3-chloro-6-fluoro-benzo[b]thien-2-yl)carbonyl-5′-aminomethyl-spiro[piperidine-4,3′-(2H)-benzo[b]furan]]",6.77
5,"Cc1ccc(C)c(C#Cc2ccc(C(=O)N3CCC4(CC3)COc3ccc(CN)cc34)o2)c1 [Cpd 172, 1-[5-(2,5-dimethyl-phenylethynyl)-furan-2-yl]carbonyl-5′-aminomethyl-spiro[piperidine-4,3′-(2H)-benzo[b]furan]]",8.14
6,"COc1ccccc1C#Cc1ccc(C(=O)N2CCC3(CC2)COc2ccc(CN)cc23)o1 [Cpd 173, 1-[5-(2-methoxy-phenylethynyl)-furan-2-yl]carbonyl-5′-aminomethyl-spiro[piperidine-4,3′-(2H)-benzo[b]furan]]",7.89
7,"Cc1ccc(C)c(OCc2ccc(C(=O)N3CCC4(CC3)COc3ccc(CN)cc34)o2)c1 [Cpd 174, 1-[5-(2,5-dimethyl-phenoxymethyl)-furan-2-yl]carbonyl-5′-aminomethyl-spiro[piperidine-4,3′-(2H)-benzo[b]furan]]",7.77
8,"NCc1ccc2c(c1)C1(CCN(C(=O)c3sc4cccc(Cl)c4c3Cl)CC1)CO2 [Cpd 175, 1-(3,4-dichloro-benzo[b]thien-2-yl)carbonyl-5′-aminomethyl-spiro[piperidine-4,3′-(2H)-benzo[b]furan]]",7.24
9,"NCc1ccc2c(c1)C1(CCN(C(=O)c3ccc(C#Cc4cc(F)cc(F)c4)o3)CC1)CO2 [Cpd 176, 1-[5-(3,5-difluoro-phenylethynyl)-furan-2-yl]carbonyl-5′-aminomethyl-spiro[piperidine-4,3′-(2H)-benzo[b]furan]]",7.39
10,"NCc1ccc2c(c1)C1(CCN(C(=O)c3ccc(C#Cc4cccc5ccccc45)o3)CC1)CO2 [Cpd 177, 1-(5-naphthalen-1-ylethynyl-furan-2-yl)carbonyl-5′-aminomethyl-spiro[piperidine-4,3′-(2H)-benzo[b]furan]]",7.59
11,"CC(C)(C)c1ccc(OCc2ccc(C(=O)N3CCC4(CC3)COc3ccc(CN)cc34)o2)cc1 [Cpd 178, 1-[5-(4-tert-butyl-phenoxymethyl)-furan-2-yl]carbonyl-5′-aminomethyl-spiro[piperidine-4,3′-(2H)-benzo[b]furan]]",6.36
12,"Cc1cccc(/C=C/C(=O)N2CCC3(CC2)COc2ccc(CN)cc23)c1 [Cpd 179, (E)-1-(3-methyl-phenylethenyl)carbonyl-5′-aminomethyl-spiro[piperidine-4,3′-(2H)-benzo[b]furan]]",6.59
13,"Cc1ccc(/C=C/C(=O)N2CCC3(CC2)COc2ccc(CN)cc23)cc1 [Cpd 180, (E)-1-(4-methyl-phenylethenyl)carbonyl-5′-aminomethyl-spiro[piperidine-4,3′-(2H)-benzo[b]furan]]",6.11
14,"C/C(=C/c1ccccc1)C(=O)N1CCC2(CC1)COc1ccc(CN)cc12 [Cpd 181, (Z)-1-(1-methyl-2-phenylethenyl)carbonyl-5′-aminomethyl-spiro[piperidine-4,3′-(2H)-benzo[b]furan]]",5.77
15,"NCc1ccc2c(c1)C1(CCN(C(=O)/C=C/c3ccc(F)cc3)CC1)CO2 [Cpd 182, (E)-1-(4-fluoro-phenylethenyl)carbonyl-5′-aminomethyl-spiro[piperidine-4,3′-(2H)-benzo[b]furan]]",6.13
16,"COc1ccccc1/C=C\C(=O)N1CCC2(CC1)COc1ccc(CN)cc12 [Cpd 183, (Z)-1-(2-methoxy-phenylethenyl)carbonyl-5′-aminomethyl-spiro[piperidine-4,3′-(2H)-benzo[b]furan]]",5.24
17,"COc1cccc(/C=C/C(=O)N2CCC3(CC2)COc2ccc(CN)cc23)c1 [Cpd 184, (E)-1-(3-methoxy-phenylethenyl)carbonyl-5′-aminomethyl-spiro[piperidine-4,3′-(2H)-benzo[b]furan]]",6.68
18,"COc1ccc(/C=C/C(=O)N2CCC3(CC2)COc2ccc(CN)cc23)cc1 [Cpd 185, (E)-1-(4-methoxy-phenylethenyl)carbonyl-5′-aminomethyl-spiro[piperidine-4,3′-(2H)-benzo[b]furan]]",5.82
